Data from patent US20200255828A1, “METHODS AND COMPOSITIONS FOR ALTERING FUNCTION AND STRUCTURE OF CHROMATIN LOOPS AND/OR DOMAINS” (THE BROAD INSTITUTE, INC., priority 2017, published 2020).

Tests used:
[1] = tested on: CTCF; assay: ChIP-Seq for CTCF with and without auxin; type: cell-based, human
Procedure: ChIP-Seq for H3K27Ac, H3K4me1, H3K4me3, H3K36me3, H3K27me3, H3K9me3, H4K16Ac, H4K20me3, H3K79me2, and H2.AZ was performed using a native ChIP-Seq protocol. Chromatin from untreated HCT-116 RAD21-mAC cells or cells treated for 6 hours with 500 uM IAA was digested with Mnase (Sigma) in digestion buffer (50 mM Tris-HCl, pH7.6, 1 mM CaCl2), 0.2% Triton X-100, butyrate 5 mM) for 5′ at 37° C. and dialyzed against RIPA buffer for 2 hrs at 4° C. Five microgram of respective antibody was incubated with 40 μl of Dynabeads Protein A (or G) for 40 min at room temperature. Antibody-bound beads were added to 500 μl of sonicated or Mnase-digested chromatin, incubated at 4° C. overnight, and washed twice with RIPA buffer, twice with RIPA buffer containing 0.3 M NaCl, twice with LiCl buffer (0.25 M LiCl, 0.5% Igepal-630, 0.5% sodium deoxycholate), once with TE (pH 8.0) plus 0.2% Triton X-100, and once with TE (pH 8.0). ChIP DNA was purified by phenol-chloroform extraction followed by ethanol precipitation. Libraries were prepped for Illumina sequencing and 50 bp single-end reads were sequenced on a HiSeq2000 or 2500 (Illumina). Applicants also performed ChIP-Seq for RAD21 and CTCF following the same protocol as above, except that cells were fixed with 1% formaldehyde for 10 minutes at 37° C. and fixation was quenched by the addition of glycine to a final concentration of 125 mM for 10 minutes. The fixed cells were sonicated using a Branson sonifier at amplitude 35%, 12 cycles of 20 seconds of sonication and 30 seconds of pause. Antibody was added to the sonicated chromatin as above and the samples were further processed as above. […]
All ChIP-Seq data was aligned to hg19 with BWA (Li and Durbin, 2010) (Li and Durbin, 2010) (Li and Durbin, 2010), deduplicated using PicardTools, and analyzed with MACS 2.0 (Liu, 2014). […]
Applicants calculated average signal over 5 kb bins across the entire genome and correlated signal between ChIP-Seq experiments before and after auxin treatment for each of CTCF, H3K27me3, H3K9me3, H3K4me1, H3K4me3 and H3K27Ac.

[2] = tested on: RAD21-mAC cells; assay: Gene expression changes between untagged HCT-116 cells and auxin-treated RAD21-mAC cells; type: cell-based; conditions: auxin-treated RAD21-mAC cells compared with untagged HCT-116 cells
Description: To our surprise, Applicants only identified 68 cell type specific loops (compared to […] each per pair of cell types in Rao et al 2014). In order to increase statistical power, Applicants identified 518 loops that had been called in one of our cell types in Rao et al 2014 (HMEC, IMR90, K562, HUVEC, HeLa, NHEK) but not in GM12878, or vice versa and had been associated with 10-fold upregulation of a gene whose promoter lay at the loop anchor. Applicants sought to then identify cases where these loop-gene pairs were present in HCT-116 to then examine the results of loop loss. However, only 15 of the 518 loops were conserved in HCT-116. […] Alternatively, it is possible that the tagging of cohesin and resulting potential loss of stability results in preferential loss of cell type specific loops. […] In fact, it may be the case that some other regulatory event catalyzes both loop formation and gene activation, or that gene activation itself enables loop formation.

[3] = tested on: HCT-116 RAD21-mAC cells; assay: APA for cohesin-independent links after cohesin degradation with ATP depletion; type: cell-based, human; conditions: auxin 6 hours, without any additional treatment
Description: Using the degron system, Applicants can directly measure the influence of cellular processes on loop formation (Vian et al, 2018). […] Applicants also tested interchromasomal cohesin-independent links requirement for ATP after cohesin degradation and observed that depletion of ATP strengthens the interactions between superenhancers (FIG. 23).

[4] = tested on: HCT-116-CMV-OsTIR1 cells; assay: PRO-Seq control for the auxin hormone itself; type: cell-based, human; conditions: no mAID tag on any protein
Procedure: To measure changes in transcription resulting from cohesin loss, Applicants performed precision run-on sequencing (PRO-Seq) (Jonkers and Lis, 2015), a variant of global run-on sequencing (GRO-Seq), using a single biotinylated nucleotide (biotin-11-CTP) as previously described (Engreitz et al., 2016). Applicants made one modifications to the protocol: at the end of each biotin enrichment, Applicants eluted biotinylated RNAs from the streptavidin-coated magnetic beads by heating beads in 25 μl of 20 mM Tris-HCl pH 7.5, 10 mM EDTA, 2% N-lauroylsarcosine at 95° C. for 5 minutes, followed by a magnetic-bead nucleic acid purification with 20 μl of MyONE SILANE beads. During the nuclei preparation step, Applicants processed pairs of RAD21-mAC cells with and without auxin treatment in parallel. In addition, Applicants performed PRO-Seq on HCT-116 CMV-OsTIR1 cells, the parental cell line of RAD21-mAC containing the OsTIR1 gene integrated at the AAVS1 locus and no mAID tags integrated on any protein. By performing PRO-Seq on CMV-OsTIR1 cells with and without auxin treatment, Applicants could control for transcriptional effects of the auxin treatment itself on HCT-116 cells, as well as any consequences of tagging the RAD21 protein. […]

O=C(O)Cc1c[nH]c2ccccc12 [auxin, indole-3-acetic acid]
CTCF peaks called after auxin treatment also called before auxin treatment [1]: 96%
Spearman's r of ChIP-Seq signal before vs after auxin treatment, CTCF ([1]; 5 kb bins genome-wide): 0.80
average enrichment at all CTCF binding sites called by ENCODE, treated cells ([1]; untreated 10.89): 8.93
genes with a greater than 5-fold change in expression [2]: 3
APA score for cohesin-independent links [3]: 8.28
number of genes detected as significantly different before vs after auxin treatment [4]: 105
number of genes significantly different with at least a 1.3-fold change [4]: 56
